# Source: ChEMBL document CHEMBL1201862, “PubChem BioAssay data set” (2004)
#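 Where inhibition never reached the appropriate level, the endpoint shown equals the highest concentration tested. Otherwise, values were interpolated linearly from a five-concentration, 48-hour dose response in 96-well plates. The concentration for 50% growth inhibition is given as GI50.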 Calls of active or inactive are those of the source. Cut-off read from the data, not from the text of the source: active = GI50 up to about 1.1 µM and inactive = higher.
# What was measured:
# Assay in all cases: NCI anticancer screen, dose series, 48 h
# ACHN = system: ACHN
# EKVX = system: EKVX
# HT-29 = system: HT-29
# Hs-578T = system: Hs-578T
# MCF7 = system: MCF7
# MDA-MB-231 = system: MDA-MB-231
# MDA-N = system: MDA-N
# NCI-H23 = system: NCI-H23
# NCI/ADR-RES = system: NCI/ADR-RES
# OVCAR-3 = system: OVCAR-3
# SF-268 = system: SF-268
# SF-295 = system: SF-295
# SK-MEL-28 = system: SK-MEL-28
# SK-OV-3 = system: SK-OV-3
# SN12C = system: SN12C
# SNB-75 = system: SNB-75
# TK-10 = system: TK-10
# U-251 = system: U-251
# UACC-62 = system: UACC-62
# UO-31 = system: UO-31
Compound,GI50 (ACHN),GI50 (EKVX),GI50 (HT-29),GI50 (Hs-578T),GI50 (MCF7),GI50 (MDA-MB-231),GI50 (MDA-N),GI50 (NCI-H23),GI50 (NCI/ADR-RES),GI50 (OVCAR-3),GI50 (SF-268),GI50 (SF-295),GI50 (SK-MEL-28),GI50 (SK-OV-3),GI50 (SN12C),GI50 (SNB-75),GI50 (TK-10),GI50 (U-251),GI50 (UACC-62),GI50 (UO-31)
CC(/C=N\NC(=S)N1CCCCC1)=N/NC(=S)N1CCCCC1,0.611 µM (active),1.88 µM (inactive),0.931 µM (active),1.41 µM (inactive),1.48 µM (inactive),2.45 µM (inactive),2.89 µM (inactive),2.42 µM (inactive),0.759 µM (active),1.53 µM (inactive),1.05 µM (active),0.627 µM (active),4.49 µM (inactive),1.04 µM (active),1.35 µM (inactive),1.69 µM (inactive),2.06 µM (inactive),0.815 µM (active),0.671 µM (active),0.649 µM (active)
CC1(C)C2CCC1C(=O)[C@@]1(C=CC(=O)CC1)C2 (some centres not stated),> 100 µM (inactive),> 100 µM (inactive),> 100 µM (inactive),> 100 µM (inactive),> 100 µM (inactive),> 100 µM (inactive),> 100 µM (inactive),> 100 µM (inactive),> 100 µM (inactive),> 100 µM (inactive),> 100 µM (inactive),> 100 µM (inactive),43.1 µM (inactive),> 100 µM (inactive),> 100 µM (inactive),61.1 µM (inactive),> 100 µM (inactive),> 100 µM (inactive),> 100 µM (inactive),> 100 µM (inactive)
C1CN(C23OC4(N5CCOCC5)C5C6CC(C7C6C4C72)C53)CCO1 (configuration not stated),> 31.6 µM (inactive),> 100 µM (inactive),> 100 µM (inactive),> 100 µM (inactive),> 100 µM (inactive),> 100 µM (inactive),> 100 µM (inactive),> 100 µM (inactive),> 100 µM (inactive),> 100 µM (inactive),> 100 µM (inactive),> 100 µM (inactive),> 100 µM (inactive),> 100 µM (inactive),> 100 µM (inactive),> 70.8 µM (inactive),> 100 µM (inactive),> 100 µM (inactive),> 100 µM (inactive),> 100 µM (inactive)
O=[N+]([O-])c1cc(Cl)cc2cc(Br)cnc12,> 31.6 µM (inactive),> 31.6 µM (inactive),> 31.6 µM (inactive),17.6 µM (inactive),> 31.6 µM (inactive),21.1 µM (inactive),> 31.6 µM (inactive),26.9 µM (inactive),> 31.6 µM (inactive),> 31.6 µM (inactive),> 10 µM (inactive),21.9 µM (inactive),> 31.6 µM (inactive),> 10 µM (inactive),> 31.6 µM (inactive),> 31.6 µM (inactive),27.7 µM (inactive),20.1 µM (inactive),23.2 µM (inactive),> 31.6 µM (inactive)
Cc1nn(C(=O)c2ccc(Cl)cc2)c2c1C(c1ccccc1O)SC(=N)N2 (configuration not stated),> 10 µM (inactive),> 10 µM (inactive),> 10 µM (inactive),> 10 µM (inactive),> 10 µM (inactive),> 10 µM (inactive),> 10 µM (inactive),> 10 µM (inactive),> 10 µM (inactive),> 10 µM (inactive),> 10 µM (inactive),> 10 µM (inactive),> 10 µM (inactive),> 10 µM (inactive),> 10 µM (inactive),> 10 µM (inactive),> 10 µM (inactive),> 10 µM (inactive),> 10 µM (inactive),–
O=Cc1coc2ccccc2c1=O,19.5 µM (inactive),22.4 µM (inactive),20.7 µM (inactive),18.2 µM (inactive),19.2 µM (inactive),18.5 µM (inactive),20.5 µM (inactive),21.9 µM (inactive),16 µM (inactive),32.1 µM (inactive),20.8 µM (inactive),17.9 µM (inactive),–,20 µM (inactive),19.5 µM (inactive),< 0.01 µM (active),17.7 µM (inactive),21.3 µM (inactive),19.9 µM (inactive),11.9 µM (inactive)
COC(=O)CCn1cnc2c(SC)ncnc21,> 100 µM (inactive),> 100 µM (inactive),> 100 µM (inactive),> 100 µM (inactive),> 100 µM (inactive),> 100 µM (inactive),> 100 µM (inactive),> 100 µM (inactive),> 100 µM (inactive),> 100 µM (inactive),> 100 µM (inactive),> 100 µM (inactive),> 100 µM (inactive),> 100 µM (inactive),> 100 µM (inactive),> 100 µM (inactive),> 100 µM (inactive),–,> 100 µM (inactive),> 100 µM (inactive)
Oc1ccccc1C1=NOC(c2ccc(C(F)(F)F)cc2)C1 (configuration not stated),> 50 µM (inactive),> 50 µM (inactive),> 50 µM (inactive),> 50 µM (inactive),0.665 µM (active),> 41.6 µM (inactive),> 50 µM (inactive),> 50 µM (inactive),> 50 µM (inactive),> 50 µM (inactive),> 50 µM (inactive),> 50 µM (inactive),> 50 µM (inactive),> 50 µM (inactive),> 50 µM (inactive),> 50 µM (inactive),–,> 50 µM (inactive),> 50 µM (inactive),–
COC(=O)[C@H](Cc1ccccc1)NP(=O)(O)OCC1OC(n2cc(C)c(=O)[nH]c2=O)CC1N=[N+]=[N-] (some centres not stated),> 100 µM (inactive),> 100 µM (inactive),> 100 µM (inactive),> 100 µM (inactive),> 100 µM (inactive),> 100 µM (inactive),> 100 µM (inactive),> 100 µM (inactive),> 100 µM (inactive),> 100 µM (inactive),> 100 µM (inactive),> 100 µM (inactive),> 100 µM (inactive),> 100 µM (inactive),> 100 µM (inactive),> 100 µM (inactive),> 100 µM (inactive),> 100 µM (inactive),–,> 100 µM (inactive)
COc1ccccc1N1CCN(S(=O)(=O)c2ccc(Cl)cc2)C1=N,48.9 µM (inactive),26.9 µM (inactive),–,78 µM (inactive),52.2 µM (inactive),37.1 µM (inactive),49.3 µM (inactive),60 µM (inactive),61.2 µM (inactive),97.9 µM (inactive),> 100 µM (inactive),> 100 µM (inactive),75 µM (inactive),> 100 µM (inactive),> 100 µM (inactive),> 100 µM (inactive),60.7 µM (inactive),37.5 µM (inactive),26.3 µM (inactive),33.3 µM (inactive)
Nn1c(CCCCCCCCc2nnc(-c3c(O)ccc4ccccc34)n2N)nnc1-c1c(O)ccc2ccccc12,> 100 µM (inactive),–,> 100 µM (inactive),> 100 µM (inactive),> 100 µM (inactive),> 100 µM (inactive),> 100 µM (inactive),> 100 µM (inactive),> 100 µM (inactive),> 100 µM (inactive),> 100 µM (inactive),> 100 µM (inactive),> 100 µM (inactive),> 100 µM (inactive),> 100 µM (inactive),> 100 µM (inactive),> 100 µM (inactive),> 100 µM (inactive),> 100 µM (inactive),> 100 µM (inactive)
